Test results published in US20160058829A1, “ANTI-FIBROTIC PEPTIDES AND THEIR USE IN METHODS FOR TREATING DISEASES AND DISORDERS CHARACTERIZED BY FIBROSIS” (Thrasos Innovation, Inc., priority 2011, published 2016).
Positions of bridges follow the written chain, without caps; N, C: chain ends.

How the values were obtained:
MCT cells = experiment: TGF-β-induced EMT in MCT cells (inhibition and reversal); format: cell-based; conditions: for reversal of EMT: additional 48 h after EMT induction, BMP-7 1 μg/ml; for percentage of cells that regained epithelial characteristics (length to width ratio 3 or less): reversal experiment, MCT cells
Method: FIG. 52A-FIG. 52E THR-123 inhibits epithelial-mesenchymal transition in MCT cells. Inhibition of EMT by THR-123. […] FIG. 52D, FIG. 52E qPCR analysis for mesenchymal marker CTGF (FIG. 52D) and Snail1 (FIG. 52E). Total RNA was extracted from cells. 1 μg of total RNA was used for generating complementary cDNA and subsequently qPCR was performed. N=3. Data was expressed as mean±s.e.m. in the graph.
FIG. 54A-FIG. 54H THR-123 reverses TGF-β-induced EMT in MCT cells. FIG. 54A-FIG. 54E. Cell were induced EMT by 48 h incubation of TGF-β and EGF (FIG. 54E). After induction of EMT, cells are incubated with either BMP-7 (1 μg/ml) (FIG. 54C), THR-123 (10 μM) (FIG. 54D) or control peptide (FIG. 54E) for an additional 48 h. […] FIG. 54F. Ratio of length to width was calculated in reversal experiment. 5 representative pictures of the cells in different areas of the well, were taken by using the inverted microscope. A total of 100 cells were analyzed (20 cells per picture). […] The data are presented mean±s.e.m. in the graph. FIG. 54G: 3 or less in length to width ratio in MCT cell was estimated as epithelial characteristics and the percentage of epithelial characteristics in each experimental setting are estimated. 52% of BMP7 and 41% of THR-123 treated MCT cells regained epithelial characteristics. Experiments were repeated three times.
(§1) EMT was induced in NP1 cells or MCT cells by incubation with 3 ng/ml recombinant human […] for 48 h. When EMT occurred, the medium was removed and replaced with THR-123 (10 μM) or recombinant human BMP7 (100 ng/ml) in DMEM. After 48 h, the cells were characterized by immunocytochemistry using primary monoclonal antibodies to E-cadherin ([…]) and rhodamine-conjugated secondary antibodies (Jackson Immunoresearch, West Grove, Pa.) as previously described. The staining was visualized by fluorescence microscopy and documented representative pictures using Spot advanced software (Carl Zeiss, Oberkochen, Germany). Also protein and total RNA were harvested at the end of experiment. For the morphometric analysis for EMT, length/width of cells in bright field pictures are measured by image J software. The ratio of length/width was calculated.

NP-1 cells [1] = experiment: TGF-β-induced apoptosis in NP-1 cells (Annexin V); format: cell-based; conditions: TGF-β 3 ng/ml 24 h; BMP-7 1 μg/ml, THR-123 10 μM
Method: FIG. 48A-FIG. 48D THR-123 inhibits TGF-β-induced apoptosis in NP-1 cells. NP-1 cells are incubated with TGF-β (3 ng/ml) for 24 h in the presence of indicated molecules. Apoptosis was analyzed by Annexin V labeling (Roche). Representative merged picture (Green: Annexin V and bright field image) of cells treated with TGF-β only (FIG. 48A), TGF-β+BMP-7 (1 μg/ml) (FIG. 48B), TGF-β+THR-123 (10 μM) (FIG. 48C) and TGF-β+ctrl peptide (FIG. 48D).

UUO animals = experiment: Unilateral ureteral obstruction (UUO), FIG. 33-34; format: in vivo; conditions: for hydroxyproline content (total collagen) of UUO kidneys: 3-fold increase in vehicle-treated UUO kidneys; for expansion of the interstitial space: UUO animals showed 3 fold expansion
Text: In the animals given BMP-7 or […] Hydroxyproline content, a measure of total collagen, increased 3-fold in the vehicle-treated UUO kidneys compared with sham-operated kidneys. […]

NP-1 cells [2] = experiment: TGF-β-induced EMT in NP-1 cells (inhibition and reversal); format: cell-based; conditions: for TGF-β-induced E-cadherin loss (co-incubation): 48 h; for TGF-β-induced E-cadherin loss (co-incubation) / TGF-β-induced EMT, cell shape (co-incubation): BMP-7 1 μg/ml, THR-123 10 μM; for E-cadherin expression in TGF-β-incubated cells (reversal) / percentage of cells that regained epithelial characteristics (length to width ratio): NP-1 cells; for TGF-β-induced EMT, cell shape (co-incubation): TGF-β 3 ng/ml with EGF 48 h; for percentage of cells that regained epithelial characteristics (length to width ratio): reversal experiment
Method: FIG. 51A-FIG. 51J THR-123 inhibits epithelial-mesenchymal transition in NP-1 cells. FIG. 51A-FIG. 51E: Bright field image. […] F-J. E-cadherin immunofluorescence labeling. NP-1 cells expressed E-cadherin in cell border (FIG. 51F). […] Representative results are shown.
FIG. 53A-FIG. 53L Reversal of EMT by THR-123 in NP-1 cells A-E: Inverted microscopic pictures. FIG. 53A. Basal polygonal epithelial nature of NP1 cells. FIG. 53B. […] FIG. 53C, FIG. 53D. BMP 7 (1 μg/ml) (FIG. 53C) or THR-123 (10 μM) (FIG. 53D) were added to mesenchymal like cells induced by TGF-β and EGF for the additional 48 hrs. […] FIG. 53E. […] FIG. 53F. Ratio of length to width was calculated in reversal experiment. Five representative pictures of the cells in different areas of the well, were taken by using the inverted microscope. A total of 100 cells were analyzed (20 cells per picture). […] The data are presented mean+s.e.m. in the graph. FIG. 53G. […] Mean plus one SD was estimated as epithelial characteristics and the percentage of epithelial characteristics in each experimental setting were estimated. 18% of BMP7 and 24% of THR-123 treated NP-1 cells regained epithelial characteristics. FIG. 53H-FIG. 53L. Immunofluorescence picture for E-cadherin. TGF-β incubation decreased E-cadherin levels when compare to untreated cells (FIG. 53H, FIG. 53I). […] Representative results from three independent experiments are shown.
as §1

[3] = system: pluripotent mesenchymal stem cells (C3H10T1/2); experiment: Osteoblastic differentiation of pluripotent stem cells (alkaline phosphatase staining); format: cell-based, Murine; conditions: BMP-7 2 ug/mL
Text: Murine pluripotent mesenchymal stem cells (C3H10T1/2) treated with medium alone, BMP-7 or THR-123 were stained for alkaline phosphatase activity, an osteogenic marker. No staining of cells was observed when treated with medium alone (control, panel FIG. 41A) or with THR-123 (panel FIG. 41B). […] Cells were counterstained with hematoxylin.

Molecule: (H)-CYFDDSSNVLCKKYRS-(OH) (H-CYFDDSSNVLCKKYRS-OH; disulfide 1-11; SMILES CC(C)C[C@@H]1NC(=O)[C@H](C(C)C)NC(=O)[C@H](CC(N)=O)NC(=O)[C@H](CO)NC(=O)[C@H](CO)NC(=O)[C@H](CC(=O)O)NC(=O)[C@H](CC(=O)O)NC(=O)[C@H](Cc2ccccc2)NC(=O)[C@H](Cc2ccc(O)cc2)NC(=O)[C@@H](N)CSSC[C@@H](C(=O)N[C@@H](CCCCN)C(=O)N[C@@H](CCCCN)C(=O)N[C@@H](Cc2ccc(O)cc2)C(=O)N[C@@H](CCCNC(=N)N)C(=O)N[C@@H](CO)C(=O)O)NC1=O) [SEQ ID NO: 1]
- TGF-β induced expression of snail and CTGF (qPCR) (MCT cells; FIG. 52 D, E): inhibited
- TGF-β-induced EMT, cell shape (co-incubation) (MCT cells; TGF-β 2.5 ng/ml 48 h, THR-123 10 μM): prevents these phenotypic changes
- reversal of EMT (MCT cells; THR-123 10 μM): Reversal of EMT was observed
- percentage of cells that regained epithelial characteristics (length to width ratio 3 or less) (MCT cells): 41%
- TGF-β-induced apoptosis (NP-1 cells [1]): decreased apoptosis
- hydroxyproline content (total collagen) of UUO kidneys (UUO animals): effectively decreased
- expansion of the interstitial space (UUO animals): significantly reduced
- TGF-β-induced E-cadherin loss (co-incubation) (NP-1 cells [2]): prevents E-cadherin loss
- E-cadherin expression in TGF-β-incubated cells (reversal) (NP-1 cells [2]): reversed E-cadherin expression
- TGF-β-induced EMT, cell shape (co-incubation) (NP-1 cells [2]): prevents these phenotypic changes
- percentage of cells that regained epithelial characteristics (length to width ratio) (NP-1 cells [2]): 24%
- osteoblastic differentiation (alkaline phosphatase staining) [3]: failed to induce osteoblastic differentiation

B1: BMP-7: bone morphogenetic protein-7; recombinant human BMP7, positive control (protein)
chain: STGSKQRSQNRSKTPKNQEALRMANVAENSSSDQRQACKKHELYVSFRDLGWQDWIIAPEGYAAYYCEGECAFPLNSYMNATNHAIVQTLVHFINPETVPKPCCAPTQLNAISVLYFDDSSNVILKKYRNMVVRACGCH
- reversal of EMT (MCT cells; THR-123 10 μM): Reversal of EMT was observed
- percentage of cells that regained epithelial characteristics (length to width ratio 3 or less) (MCT cells): 52%
- TGF-β-induced apoptosis (NP-1 cells [1]): decreased apoptosis
- hydroxyproline content (total collagen) of UUO kidneys (UUO animals): effectively decreased
- expansion of the interstitial space (UUO animals): significantly reduced
- TGF-β-induced E-cadherin loss (co-incubation) (NP-1 cells [2]): prevents E-cadherin loss
- E-cadherin expression in TGF-β-incubated cells (reversal) (NP-1 cells [2]): reversed E-cadherin expression
- TGF-β-induced EMT, cell shape (co-incubation) (NP-1 cells [2]): prevents these phenotypic changes
- percentage of cells that regained epithelial characteristics (length to width ratio) (NP-1 cells [2]): 18%
- osteoblastic differentiation (alkaline phosphatase staining) [3]: induced osteoblastic differentiation
